Consider five compounds from US9023789B2, “Amylin analogs and pharmaceutical compositions thereof” (Novo Nordisk A/S, priority 2012, dated 2015).

Converted amounts (≈) assume the structure as drawn. Like-named read-outs stand apart in the source and are kept apart here. Numbered stars: 1 amine (or outer) side, 2 acyl side, 3 side chain; on linkers, the order of the positions; unused ones are H or OH. Bridge positions count the residues as written; N and C are the ends. Side chains are listed from the residue outwards. Peptide text beside a SMILES is read from it. * marks the point of attachment. C20 diacid = O=C(O)CCCCCCCCCCCCCCCCCCC(=O)*; γGlu = O=C(O)[C@H](CCC(=O)[*:2])N[*:1]; AEEA = NCCOCCOCC(=O)O

Data set [1] can be described thus: ASSAY (III) ThT fibrillation assay for physical stability. It counts as physicochemical. In a few lines: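 Physical stability scored by ThT fluorescence (444 nm excitation, 485 nm emission) tracked every 20 min during 37 °C incubation with 960 rpm shaking, ThT at 1 μM final. Values are replicate means with SD at chosen times; HPLC against pramlintide standard gives initial and post-assay soluble concentrations.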

A short description of data set [2]: ASSAY (IV) determination of solubility. It counts as physicochemical. In short, it runs like this:
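Samples of polypeptide, prepared from a water stock at […] and diluted 1:1 into 100 mM buffers spanning pH 3.0 to 8.0, stood 18 hours at room temperature. Polypeptide concentration was then determined by UPLC following centrifugation.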

Where [3] appears, read: bistrispropane buffer, pH 6.5, read-out: Solubility pH 6.5 Concentration.
The mark [4] stands for this setting: bistrispropane buffer, pH 7.5, read-out: Solubility pH 7.5 Concentration.
Setting [5] is: bistrispropane buffer, pH 6.0, read-out: Solubility pH 6.0 Concentration.
[6] abbreviates: bistrispropane buffer, pH 7.0, read-out: Solubility pH 7.0 Concentration.
Where [7] appears, read: bistrispropane buffer, pH 8.0, read-out: Solubility pH 8.0 Concentration.
Setting [8] is: glycylglycine buffer, pH 3.0, read-out: Solubility pH 3.0 Concentration.
Where [9] appears, read: glycylglycine buffer, pH 4.0, read-out: Solubility pH 4.0 Concentration.
Where [10] appears, read: glycylglycine buffer, pH 5.0, read-out: Solubility pH 5.0 Concentration.

Consider `CC[C@H](C)[C@H](NC(=O)[C@H](C)NC(=O)CNC(=O)[C@H](Cc1ccccc1)NC(=O)[C@H](CC(N)=O)NC(=O)[C@@H]1CCCN1C(=O)[C@H](CO)NC(=O)[C@H](CO)NC(=O)[C@H](Cc1c[nH]cn1)NC(=O)[C@H](CCCNC(=N)N)NC(=O)[C@H](CC(C)C)NC(=O)[C@H](Cc1ccccc1)NC(=O)[C@H](Cc1c[nH]cn1)NC(=O)[C@H](C)NC(=O)[C@H](CC(C)C)NC(=O)[C@H](CCCNC(=N)N)NC(=O)[C@H](CCC(N)=O)NC(=O)[C@@H](NC(=O)[C@H](C)NC(=O)[C@@H]1CSSC[C@H](NC(=O)[C@H](CCCNC(=N)N)NC(=O)CNC(=O)CC[C@H](NC(=O)CCCCCCCCCCCCCCCCCCC(=O)O)C(=O)O)C(=O)N[C@@H](CC(N)=O)C(=O)N[C@@H]([C@@H](C)O)C(=O)N[C@@H](C)C(=O)N[C@@H]([C@@H](C)O)C(=O)N1)[C@@H](C)O)C(=O)N1CCC[C@H]1C(=O)N[C@@H](CO)C(=O)N[C@@H](CO)C(=O)N[C@H](C(=O)N[C@@H](CC(N)=O)C(=O)N[C@H](C(=O)NCC(=O)N1CCC[C@H]1C(=O)N[C@@H](CC(N)=O)C(=O)N[C@H](C(=O)N[C@@H](Cc1ccc(O)cc1)C(N)=O)[C@@H](C)O)C(C)C)[C@@H](C)O` [Example 102] ({C20 diacid-γGlu}-GRCNTATCATQRLAHFLRHSSPNFGAIPSSTNVGPNTY-NH2; disulfide 3-8 (inferred)), for which, in data set [1], the “ThT pH 4.0 lag time (h)” value is given as 26 h. Further, the solubility at 18 h in data set [2] (setting [3]) is no less than 200 µM; in data set [2] (setting [4]), 88 µM (≈ 396 µg/mL); in data set [2] (setting [5]), no less than 200 µM; in data set [2] (setting [6]), 154 µM (≈ 693 µg/mL); in data set [2] (setting [7]) it was 113 µM (≈ 508 µg/mL); in data set [2] (setting [8]), no less than 200 µM. Also, the solubility at 18 h was found to be 197 µM (≈ 886 µg/mL) in data set [2] (setting [9]) and 195 µM (≈ 877 µg/mL) in data set [2] (setting [10]).

For the compound `CC[C@H](C)[C@H](NC(=O)[C@H](C)NC(=O)CNC(=O)[C@H](Cc1ccccc1)NC(=O)[C@H](CC(N)=O)NC(=O)[C@@H]1CCCN1C(=O)[C@H](CO)NC(=O)[C@H](CO)NC(=O)[C@H](Cc1c[nH]cn1)NC(=O)[C@H](CCCNC(=N)N)NC(=O)[C@H](CC(C)C)NC(=O)[C@H](Cc1ccccc1)NC(=O)[C@H](CC(N)=O)NC(=O)[C@H](C)NC(=O)[C@H](CC(C)C)NC(=O)[C@H](CCCNC(=N)N)NC(=O)[C@H](CCC(N)=O)NC(=O)[C@@H](NC(=O)[C@H](C)NC(=O)[C@@H]1CSSC[C@H](NC(=O)[C@@H](N)CCCCNC(=O)COCCOCCNC(=O)CC[C@H](NC(=O)CCCCCCCCCCCCCCCCCCC(=O)O)C(=O)O)C(=O)N[C@@H](CC(N)=O)C(=O)N[C@@H]([C@@H](C)O)C(=O)N[C@@H](C)C(=O)N[C@@H]([C@@H](C)O)C(=O)N1)[C@@H](C)O)C(=O)N1CCC[C@H]1C(=O)N[C@@H](CO)C(=O)N[C@@H](CO)C(=O)N[C@H](C(=O)N[C@@H](CC(N)=O)C(=O)N[C@H](C(=O)NCC(=O)N[C@@H](CO)C(=O)N[C@@H](CCC(=O)O)C(=O)N[C@H](C(=O)N[C@@H](Cc1ccc(O)cc1)C(N)=O)[C@@H](C)O)C(C)C)[C@@H](C)O` [Example 26] (H-K([AEEA-γGlu-C20 diacid])CNTATCATQRLANFLRHSSPNFGAIPSSTNVGSETY-NH2; disulfide 2-7; N-terminus assumed), the “ThT pH 4.0 lag time (h)” value in data set [1] turned out to be 12 h. The solubility at 18 h in data set [2] (setting [3]), in data set [2] (setting [4]), in data set [2] (setting [5]), in data set [2] (setting [6]), in data set [2] (setting [7]) and in data set [2] (setting [8]) was no less than 200 µM in each case. The solubility at 18 h in data set [2] (setting [9]) and in data set [2] (setting [10]) was no less than 200 µM each time.

For `CC[C@H](C)[C@H](NC(=O)[C@H](C)NC(=O)CNC(=O)[C@H](Cc1ccccc1)NC(=O)[C@H](CC(N)=O)NC(=O)[C@@H]1CCCN1C(=O)[C@H](CO)NC(=O)[C@H](CO)NC(=O)[C@H](Cc1c[nH]cn1)NC(=O)[C@H](CCCNC(=N)N)NC(=O)[C@H](CC(C)C)NC(=O)[C@H](Cc1ccccc1)NC(=O)[C@H](CCC(=O)O)NC(=O)[C@H](C)NC(=O)[C@H](CC(C)C)NC(=O)[C@H](CCCNC(=N)N)NC(=O)[C@H](CCC(N)=O)NC(=O)[C@@H](NC(=O)[C@H](C)NC(=O)[C@@H]1CSSC[C@H](NC(=O)[C@H](CCCCN)NC(=O)COCCOCCNC(=O)COCCOCCNC(=O)CC[C@H](NC(=O)CCCCCCCCCCCCCCCCCCC(=O)O)C(=O)O)C(=O)N[C@@H](CC(N)=O)C(=O)N[C@@H]([C@@H](C)O)C(=O)N[C@@H](C)C(=O)N[C@@H]([C@@H](C)O)C(=O)N1)[C@@H](C)O)C(=O)N1CCC[C@H]1C(=O)N[C@@H](CO)C(=O)N[C@@H](CO)C(=O)N[C@H](C(=O)N[C@@H](CC(N)=O)C(=O)N[C@H](C(=O)NCC(=O)N[C@@H](CO)C(=O)N[C@@H](CC(N)=O)C(=O)N[C@H](C(=O)N[C@@H](Cc1ccc(O)cc1)C(N)=O)[C@@H](C)O)C(C)C)[C@@H](C)O` [Example 19], in data set [1], the “ThT pH 4.0 lag time (h)” value was found to be 9 h. Moreover, the solubility at 18 h in data set [2] (setting [3]), in data set [2] (setting [4]), in data set [2] (setting [5]), in data set [2] (setting [6]), in data set [2] (setting [7]) and in data set [2] (setting [8]) was no less than 200 µM throughout. Besides, the solubility at 18 h in data set [2] (setting [9]) and in data set [2] (setting [10]) was no less than 200 µM in each case.

As to `CC[C@H](C)[C@H](NC(=O)[C@H](C)NC(=O)CNC(=O)[C@H](Cc1ccccc1)NC(=O)[C@H](CC(N)=O)NC(=O)[C@@H]1CCCN1C(=O)[C@H](CO)NC(=O)[C@H](CO)NC(=O)[C@H](Cc1c[nH]cn1)NC(=O)[C@H](CCCNC(=N)N)NC(=O)[C@H](CC(C)C)NC(=O)[C@H](Cc1ccccc1)NC(=O)[C@H](CCC(=O)O)NC(=O)[C@H](C)NC(=O)[C@H](CC(C)C)NC(=O)[C@H](CCCNC(=N)N)NC(=O)[C@H](CCC(N)=O)NC(=O)[C@@H](NC(=O)[C@H](C)NC(=O)[C@@H]1CSSC[C@H](NC(=O)[C@@H](N)CCCCNC(=O)CC[C@H](NC(=O)CCCCCCCCCCCCCCCCCCC(=O)O)C(=O)O)C(=O)N[C@@H](CC(N)=O)C(=O)N[C@@H]([C@@H](C)O)C(=O)N[C@@H](C)C(=O)N[C@@H]([C@@H](C)O)C(=O)N1)[C@@H](C)O)C(=O)N1CCC[C@H]1C(=O)N[C@@H](CO)C(=O)N[C@@H](CO)C(=O)N[C@H](C(=O)N[C@@H](CC(N)=O)C(=O)N[C@H](C(=O)NCC(=O)N1CCC[C@H]1C(=O)N[C@@H](CC(N)=O)C(=O)N[C@H](C(=O)N1CCC[C@H]1C(N)=O)[C@@H](C)O)C(C)C)[C@@H](C)O` [Example 114] (H-K([γGlu-C20 diacid])CNTATCATQRLAEFLRHSSPNFGAIPSSTNVGPNTP-NH2; disulfide 2-7 (inferred); N-terminus assumed), the “ThT pH 4.0 lag time (h)” value in data set [1] came out at 45 h. For the same compound, the solubility at 18 h in data set [2] (setting [3]), in data set [2] (setting [4]), in data set [2] (setting [5]), in data set [2] (setting [6]), in data set [2] (setting [7]) and in data set [2] (setting [8]) was no less than 200 µM throughout. For the same compound, the solubility at 18 h in data set [2] (setting [9]) and in data set [2] (setting [10]) was no less than 200 µM throughout.

In the case of `CC[C@H](C)[C@H](NC(=O)[C@H](C)NC(=O)CNC(=O)[C@H](Cc1ccccc1)NC(=O)[C@H](CC(N)=O)NC(=O)[C@@H]1CCCN1C(=O)[C@H](CO)NC(=O)[C@H](CO)NC(=O)[C@H](Cc1c[nH]cn1)NC(=O)[C@H](CCCNC(=N)N)NC(=O)[C@H](CC(C)C)NC(=O)[C@H](Cc1ccccc1)NC(=O)[C@H](CCC(=O)O)NC(=O)[C@H](C)NC(=O)[C@H](CC(C)C)NC(=O)[C@H](CCCNC(=N)N)NC(=O)[C@H](CCC(N)=O)NC(=O)[C@@H](NC(=O)[C@H](C)NC(=O)[C@@H]1CSSC[C@H](NC(=O)[C@@H](N)CCCCNC(=O)CC[C@H](NC(=O)CCCCCCCCCCCCCCCCCCC(=O)O)C(=O)O)C(=O)N[C@@H](CC(N)=O)C(=O)N[C@@H]([C@@H](C)O)C(=O)N[C@@H](C)C(=O)N[C@@H]([C@@H](C)O)C(=O)N1)[C@@H](C)O)C(=O)N1CCC[C@H]1C(=O)N[C@@H](CO)C(=O)N[C@@H](CO)C(=O)N[C@H](C(=O)N[C@@H](CC(N)=O)C(=O)N[C@H](C(=O)NCC(=O)N[C@@H](Cc1c[nH]cn1)C(=O)N[C@@H](CCC(=O)O)C(=O)N[C@H](C(=O)N[C@@H](Cc1ccc(O)cc1)C(N)=O)[C@@H](C)O)C(C)C)[C@@H](C)O` [Example 107] (H-K([γGlu-C20 diacid])CNTATCATQRLAEFLRHSSPNFGAIPSSTNVGHETY-NH2; disulfide 2-7 (inferred)), the “ThT pH 4.0 lag time (h)” value in data set [1] came out at 45 h. Besides, the solubility at 18 h in data set [2] (setting [3]), in data set [2] (setting [4]), in data set [2] (setting [5]), in data set [2] (setting [6]), in data set [2] (setting [7]) and in data set [2] (setting [8]) was no less than 200 µM throughout. Further, the solubility at 18 h in data set [2] (setting [9]) and in data set [2] (setting [10]) was no less than 200 µM each time.
